Data reported in patent publication US20050176812A1, “Method of treating cancer” (priority 2003, published 2005).

Legend:
[1] = stability of discodermolide infusion solution; format: physicochemical; settings: infusion concentrate mixed with diluent; infusion solution 0.1-2.0 mg/mL, 0.1-1.5 mg/mL, 0.5-8.0 mg/mL or 0.77 mg/mL
Procedure: The amount of diluent used in admixture with the infusion concentrate to form an infusion solution may be chosen so as to obtain a desired concentration of discodermolide in the infusion solution. The amount of diluent used is also chosen so that the solution is stable long enough to be administered. Concentration of infusion solutions are 0.1-2.0 mg/mL, or 0.1-1.5 mg/mL or preferably 0.5-8.0 mg/mL or 0.77 mg/mL. Such solutions are found to be stable for up to 8 hours.

[2] = precipitation on direct i.v. infusion followed by normal saline flush; format: physicochemical; settings: 0.77 mg/mL in 40% propylene glycol, 10% ethanol, 50% normal saline; direct i.v. infusion into the vein followed by normal saline flush
Procedure: Preferably the infusion solution of the present invention is prepared by mixing the infusion concentrate with a diluent, such as 16.3% W/v ethanol in saline in a suitable container. A preferred formulation comprises 1 mL of 2 mg/mL infusion concentrate diluted with 1.6 mL of 16.3% w/v ethanol in saline to yield an infusion solution containing 0.77 mg/mL discodermolide in 40% propylene glycol, 10% ethanol and 50% normal saline. This solution is administered via iv infusion, or push into Y tubing containing a 0.9% normal saline drip, directly into the vein and the drug solution residue in the tubing will be flushed with normal saline. The volume of discodermolide solution given via i.v. push will vary from 0.3 mL (at the starting does of 0.2 mg or 0.13 mg/m^2) to 26 mL (for a dose of 20 mg or 11.43 mg/m^2) or 43 mL (for a dose of 33 mg or 19.2 mg/m^2).

SMILES: C=C/C=C\[C@H](C)[C@H](OC(N)=O)[C@@H](C)[C@H](O)[C@@H](C)C/C(C)=C\[C@H](C)[C@@H](O)[C@@H](C)/C=C\[C@@H](O)C[C@@H]1OC(=O)[C@H](C)[C@@H](O)[C@H]1C [discodermolide]
- stability of infusion solution (time stable) [1]: up to 8 hours
- precipitation of discodermolide [2]: will not cause any precipitation
